These results are taken from article PMC10269165 (Antimicrobial Agents and Chemotherapy, 2023).

A word on the IC50: it is the concentration at which inhibition is half-maximal.

Read-outs that look alike come from different tables or passages of the source.

Series [1] in a line: WST-1 cytotoxicity assay in HCT-8 cells. It counts as cell-based, human. Conditions: human, HCT-8 cells (human ileocecal colorectal adenocarcinoma), read-out: Mean IC50 ± SEM, Cytotoxicity. The procedure: Compounds were tested for cytotoxicity in human ileocecal colorectal adenocarcinoma cells (HCT-8) (ATCC CCL-244; RRID:CVCL_2478) by using the cell proliferation reagent WST-1 (Roche) according to the manufacturer’s protocol. The WST-1 assay is a quantitative colorimetric assay for measurement of metabolically active cells. This assay is based on the reduction of the tetrazolium salt (WST-1) by viable cells. About 5 × 10^4 HCT-8 cells were seeded per well in 96-well plates and grown overnight in 200 μL of RPMI 1640 medium (without phenol red; Gibco) supplemented with 2.5 g/L of glucose, 1 mM sodium pyruvate, 1.5 g/L of sodium bicarbonate, 10% heat-inactivated FBS (Gibco), and 1× antibiotic-antimycotic (Gibco) at 37°C with 5% CO2 in a humidified incubator. Upon reaching 80 to 90% confluence, cells were treated with various concentrations of the test compounds for 24 h. Control wells received equivalent volumes of DMSO used in the reconstituted compounds. After 24 h of culture, 10 μL of the WST-1 reagent was added to each well, and the plates were incubated in the dark for 1 h at 37°C with 5% CO2. The plates were well agitated, and 150 μL of the medium from each well was transferred to a new clear flat-bottomed black 96-well plate (Corning). The absorbance was read at a test wavelength of 440 nm and a reference wavelength of 690 nm using a multimode microplate reader (Spectra Max iD3; Molecular Devices, USA). All of the reactions were prepared in triplicate. The dose-response curves were generated by nonlinear regression analysis with GraphPad PRISM software using control-normalized data to determine the half-maximal cytotoxicity (IC50) concentrations.

The test system of series [2] is catechol O-methyltransferase (COMT). The arrangement: method as in PMID 15755652, doi:10.1007/s40495-018-0157-y. Conditions: cited from earlier work.
The test system is the same in series [3]. Also noted: method as in PMID 15755652, doi:10.1007/s40495-018-0157-y. Particulars: cited from earlier work. The source holds these as a separate data set.

Take `O=c1c(O)cccc2cc(O)c(O)c(O)c12` [NSC35676, purpurogallin]: the IC50 at 24 h in series [1] worked out at 566 ± 55.9 µM. Moreover, the “inhibition of COMT catalytic activity” value in series [2] and in series [3] was “inhibit the catalytic activity” throughout.

`CO[C@@]12[C@H](COC(N)=O)C3=C(C(=O)C(C)=C(N)C3=O)N1C[C@H]1[C@@H]2N1C` (stereo partly shown) [NSC56410]: the concentration for half-maximal inhibition (IC50) at 24 h in series [1] amounted to 188 ± 4.19 µM.
